# Patent US10385057B2, “Pyrazole compounds and methods of making and using same” (Lundbeck La Jolla Research Center, Inc., priority 2015, dated 2019)
# pIC50: −log10 of the molar value.
# Columns and labels:
# MAGL = target: T1, MAGL (Mus musculus, UniProt O35678); assay: In vitro competitive activity-based protein profiling, mouse MAGL; assay type: biochemical; conditions: for inhibition at 1 µM: read-out: MAGL % inh. 1 μM (mouse)
# T1 construct: mouse brain membrane fraction or cell lysates for mouse assays; from tissue
# T1 sequence (O35678 1-303): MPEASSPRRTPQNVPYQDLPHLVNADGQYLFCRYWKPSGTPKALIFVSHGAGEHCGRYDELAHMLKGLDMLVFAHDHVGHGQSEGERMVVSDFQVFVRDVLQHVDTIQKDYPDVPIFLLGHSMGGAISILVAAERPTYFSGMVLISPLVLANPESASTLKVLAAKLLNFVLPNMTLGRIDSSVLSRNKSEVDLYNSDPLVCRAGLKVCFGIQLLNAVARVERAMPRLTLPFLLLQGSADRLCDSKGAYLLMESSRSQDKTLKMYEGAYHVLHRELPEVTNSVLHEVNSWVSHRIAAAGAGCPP
# Method in brief: (§1)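 Mouse brain membranes or cell lysates (mouse) and human prefrontal cortex or cell membrane fractions (human), 1.0 mg/mL protein, preincubated with inhibitor 30 min at 37 °C, then FP-Rh or HT-01 probe 30 min at 37 °C. SDS-PAGE; MAGL and FAAH activity from in-gel fluorescence band intensity.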
# FAAH = target: T2, FAAH (Mus musculus, UniProt O08914); assay: In vitro competitive activity-based protein profiling, mouse FAAH; assay type: biochemical; conditions: for inhibition at 1 µM: read-out: FAAH % inh. 1 μM (mouse)
# T2 construct: mouse brain membrane fraction or cell lysates for mouse assays; from tissue
# T2 sequence (O08914 1-579): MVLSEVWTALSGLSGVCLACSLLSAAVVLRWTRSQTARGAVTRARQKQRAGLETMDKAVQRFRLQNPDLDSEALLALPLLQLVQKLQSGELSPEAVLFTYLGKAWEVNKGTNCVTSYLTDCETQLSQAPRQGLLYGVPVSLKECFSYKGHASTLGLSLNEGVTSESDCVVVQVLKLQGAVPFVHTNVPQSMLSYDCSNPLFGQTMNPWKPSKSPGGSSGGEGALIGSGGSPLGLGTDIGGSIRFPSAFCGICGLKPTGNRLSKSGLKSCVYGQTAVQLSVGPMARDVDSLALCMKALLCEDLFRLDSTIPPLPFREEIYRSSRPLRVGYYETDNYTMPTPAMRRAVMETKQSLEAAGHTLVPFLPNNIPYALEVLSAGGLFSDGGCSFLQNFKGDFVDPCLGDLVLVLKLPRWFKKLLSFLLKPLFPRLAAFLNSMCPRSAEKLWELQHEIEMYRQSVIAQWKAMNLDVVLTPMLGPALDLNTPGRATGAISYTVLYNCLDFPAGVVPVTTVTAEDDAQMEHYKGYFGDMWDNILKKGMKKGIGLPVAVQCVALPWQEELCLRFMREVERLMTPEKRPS
# Method in brief: as §1
inhibition at 1 µM (MAGL) [%],inhibition at 1 µM (FAAH) [%],pIC50 (MAGL),pIC50 (FAAH),"inhibition at 10 µM (MAGL; 10 μM, read-out: MAGL % inh. at 10 μM (mouse)) [%]","inhibition at 10 µM (FAAH; 10 μM, read-out: FAAH % inh. at 10 μM (mouse)) [%]",SMILES
50 to 75,≥ 75,,,,,"CN(Cc1ccccc1C(F)(F)F)[C@@H]1C[C@@H]2CN(C(=O)n3cc(C(=O)N4CCOCC4)cn3)C[C@@H]2C1 [Example 93, (cis-5-(methyl(2-(trifluoromethyl)benzyl)amino)hexahydrocyclopenta[c]pyrrol-2(1H)-yl)(4-(morpholine-4-carbonyl)-1H-pyrazol-1-yl)methanone]"
≥ 75,≥ 75,6.00 to 7.00,≥ 7.00,,,"O=C(N1CCC2(CCN(Cc3ccc(N4CCCC4)cc3)C2)C1)n1cc(Cl)cn1 (stereo not shown) [Example 134, (4-chloro-1H-pyrazol-1-yl)(7-(4-(pyrrolidin-1-yl)benzyl)-2,7-diazaspiro[4.4]nonan-2-yl)methanone]"
≥ 75,≥ 75,,,,,"NC(=O)c1cnn(C(=O)N2CCC3(CCN(Cc4cc(N5CCOCC5)ccc4C(F)(F)F)C3)C2)c1 (stereo not shown) [Example 212, 1-(7-(5-morpholino-2-(trifluoromethyl)benzyl)-2,7-diazaspiro[4.4]nonane-2-carbonyl)-1H-pyrazole-4-carboxamide]"
≥ 75,≥ 75,≥ 7.00,≥ 7.00,,,"O=C(N1CC2CN(Cc3ccccc3C(F)(F)F)CC2C1)n1cc(C(F)(F)F)cn1 (stereo not shown) [Example 155, (4-(trifluoromethyl)-1H-pyrazol-1-yl)(5-(2-(trifluoromethyl)benzyl)hexahydropyrrolo[3,4-c]pyrrol-2(1H)-yl)methanone]"
≥ 75,≥ 75,≥ 7.00,≥ 7.00,,,"O=C(N1CC2CN(Cc3cccc(N4CCOCC4)c3)CC2C1)n1cc(C(F)(F)F)cn1 (stereo not shown) [Example 145, (5-(3-morpholinobenzyl)hexahydropyrrolo[3,4-c]pyrrol-2(1H)-yl)(4-(trifluoromethyl)-1H-pyrazol-1-yl)methanone]"
≥ 75,≥ 75,,,,,"NC(=O)c1cnn(C(=O)N2CCC3(CCN(Cc4ccc(N5CCOCC5)c(C(F)(F)F)c4)C3)C2)c1 (stereo not shown) [Example 206, 1-(7-(4-morpholino-3-(trifluoromethyl)benzyl)-2,7-diazaspiro[4.4]nonane-2-carbonyl)-1H-pyrazole-4-carboxamide]"
25 to 50,≥ 75,5.00 to 6.00,6.00 to 7.00,,,"O=C(c1cnn(C(=O)N2CC3CN(Cc4ccc(Cl)cc4)CC3C2)c1)N1CCCCC1 (stereo not shown) [Example 4, (5-(4-chlorobenzyl)hexahydropyrrolo[3,4-c]pyrrol-2(1H)-yl)(4-(piperidine-1-carbonyl)-1H-pyrazol-1-yl)methanone]"
≥ 75,25 to 50,,,,,"CN(Cc1ccc(C(F)(F)F)cc1)[C@@H]1C[C@@H]2CN(C(=O)n3cc(C(=O)N4CCN(C5CC5)CC4)cn3)C[C@@H]2C1 [Example 98, (4-cyclopropylpiperazin-1-yl)(1-(cis-5-(methyl(4-(trifluoromethyl)benzyl)amino)octahydrocyclopenta[c]pyrrole-2-carbonyl)-1H-pyrazol-4-yl)methanone]"
25 to 50,≥ 75,,,,,"O=C(c1cnn(C(=O)N2CCC3(CCN(Cc4ccc(N5CCOCC5)cc4C(F)(F)F)C3)C2)c1)N1CCOCC1 (stereo not shown) [Example 51, (4-(morpholine-4-carbonyl)-1H-pyrazol-1-yl)(7-(4-morpholino-2-(trifluoromethyl)benzyl)-2,7-diazaspiro[4.4]nonan-2-yl)methanone]"
≥ 75,≥ 75,6.00 to 7.00,≥ 7.00,,,"CN(Cc1cccc(Oc2cccnc2)c1)[C@@H]1C[C@@H]2CN(C(=O)n3cc(Cl)cn3)C[C@@H]2C1 [Example 165, (4-chloro-1H-pyrazol-1-yl)(cis-5-(methyl(3-(pyridin-3-yloxy)benzyl)amino)hexahydrocyclopenta[c]pyrrol-2(1H)-yl)methanone]"
≥ 75,50 to 75,,,,,"NC(=O)c1cnn(C(=O)N2CCC3(CCN(Cc4cc(N5CCCC5)ccc4C(F)(F)F)C3)C2)c1 (stereo not shown) [Example 213, 1-(7-(5-(pyrrolidin-1-yl)-2-(trifluoromethyl)benzyl)-2,7-diazaspiro[4.4]nonane-2-carbonyl)-1H-pyrazole-4-carboxamide]"
≥ 75,≥ 75,6.00 to 7.00,≥ 7.00,,,"O=C(N1C[C@H]2C[C@@H](NCc3cccc(Cl)c3)C[C@H]2C1)n1cc(Cl)cn1 [Example 66, (4-chloro-1H-pyrazol-1-yl)(cis-5-((3-chlorobenzyl)amino)hexahydrocyclopenta[c]pyrrol-2(1H)-yl)methanone]"
≥ 75,≥ 75,,,,,"O=C(c1cnn(C(=O)N2CCC3(CCN(Cc4cc(Cl)cc(C(F)(F)F)c4)C3)C2)c1)N1CCN(C2CC2)CC1 (stereo not shown) [Example 36, (1-(7-(3-chloro-5-(trifluoromethyl)benzyl)-2,7-diazaspiro[4.4]nonane-2-carbonyl)-1H-pyrazol-4-yl)(4-cyclopropylpiperazin-1-yl)methanone]"
,,≥ 7.00,≥ 7.00,,,"NC(=O)c1cnn(C(=O)N2CC[C@@]3(CCN(Cc4cc(Cl)cc(C(F)(F)F)c4)C3)C2)c1 [Example 192, (R)-1-(7-(3-chloro-5-(trifluoromethyl)benzyl)-2,7-diazaspiro[4.4]nonane-2-carbonyl)-1H-pyrazole-4-carboxamide]"
50 to 75,≥ 75,,,,,"CNC(=O)c1cnn(C(=O)N2C[C@H]3C[C@@H](N(C)Cc4ccccc4C(F)(F)F)C[C@H]3C2)c1 [Example 91, N-methyl-1-(cis-5-(methyl(2-(trifluoromethyl)benzyl)amino)octahydrocyclopenta[c]pyrrole-2-carbonyl)-1H-pyrazole-4-carboxamide]"
≥ 75,≥ 75,,,,,"CN(Cc1ccc(C(F)(F)F)c(N2CCCC2)c1)[C@H]1C[C@@H]2CN(C(=O)n3cc(C(N)=O)cn3)C[C@@H]2C1 [Example 216, 1-(trans-5-(methyl(3-(pyrrolidin-1-yl)-4-(trifluoromethyl)benzyl)amino)octahydrocyclopenta[c]pyrrole-2-carbonyl)-1H-pyrazole-4-carboxamide]"
≥ 75,≥ 75,,,,,"O=C(c1cnn(C(=O)N2CC3CN(Cc4cc(Cl)cc(C(F)(F)F)c4)CC3C2)c1)N1CCOCC1 (stereo not shown) [Example 10, (5-(3-chloro-5-(trifluoromethyl)benzyl)hexahydropyrrolo[3,4-c]pyrrol-2(1H)-yl)(4-(morpholine-4-carbonyl)-1H-pyrazol-1-yl)methanone]"
0 to 25,≥ 75,,,100,100,"CNC(=O)c1cnn(C(=O)N2CCC3(CCN(Cc4cccc(C(F)(F)F)c4)C3)C2)c1 (stereo not shown) [Example 42, N-methyl-1-(7-(3-(trifluoromethyl)benzyl)-2,7-diazaspiro[4.4]nonane-2-carbonyl)-1H-pyrazole-4-carboxamide]"
≥ 75,≥ 75,,,,,"CN(Cc1cc(Cl)ccc1C(F)(F)F)[C@H]1C[C@@H]2CN(C(=O)n3cc(C(N)=O)cn3)C[C@@H]2C1 [Example 215, 1-(trans-5-((5-chloro-2-(trifluoromethyl)benzyl)(methyl)amino)octahydrocyclopenta[c]pyrrole-2-carbonyl)-1H-pyrazole-4-carboxamide]"
≥ 75,≥ 75,≥ 7.00,≥ 7.00,,,"CN(Cc1cccc(Cl)c1)[C@@H]1C[C@@H]2CN(C(=O)n3cc(Cl)cn3)C[C@@H]2C1 [Example 65, (4-chloro-1H-pyrazol-1-yl)(cis-5-((3-chlorobenzyl)(methyl)amino)hexahydrocyclopenta[c]pyrrol-2(1H)-yl)methanone]"
≥ 75,≥ 75,≥ 7.00,≥ 7.00,,,"O=C(N1CC2CN(Cc3ccc(C(F)(F)F)cc3)CC2C1)n1cc(Cl)cn1 (stereo not shown) [Example 120, (4-chloro-1H-pyrazol-1-yl)(5-(4-(trifluoromethyl)benzyl)hexahydropyrrolo[3,4-c]pyrrol-2(1H)-yl)methanone]"
≥ 75,≥ 75,6.00 to 7.00,6.00 to 7.00,,,"O=C(N1C[C@H]2C[C@@H](NCc3ccccc3Cl)C[C@H]2C1)n1cc(Cl)cn1 [Example 61, (4-chloro-1H-pyrazol-1-yl)(cis-5-((2-chlorobenzyl)amino)hexahydrocyclopenta[c]pyrrol-2(1H)-yl)methanone]"
